In US20100298305A1, “TIZANIDINE FOR THE TREATMENT OF POST-TRAUMATIC STRESS DISORDER AND NIGHTMARES” (The United States Government, as represented by the …, priority 2008, published 2010):
Like-named read-outs stand apart in the source and are kept apart here.

What was measured:
PTSD [1] = assay: Example 1 case summaries 1-6: tizanidine as adjunctive treatment for PTSD, anxiety, depression, psychosis or impaired cognition; type: in vivo, human; details: for signs or symptoms: Case 3, more than two years, sertraline 250 mg daily, divalproex sodium 2500 mg daily, quetiapine 100 mg twice daily and 400 mg at bedtime, amitriptyline 25 mg at bedtime, tramadol 50 mg as needed
Method: Treatment was begun with sertraline 100 mg per day for anxiety and nortriptyline 25 mg at bedtime for headaches. […] Treatment with tizanidine was started and the dose was increased to 8 mg at bedtime.
Tizanidine was started and titrated up to 4 mg at bedtime along with aripiprazole (15 mg at bedtime) and clonazepam (0.5 mg daily).
These medications included sertraline (250 mg daily), divalproex sodium (2500 mg daily), quetiapine (100 mg twice daily and 400 mg at bedtime), amitriptyline (25 mg at bedtime), and tramadol (50 mg as needed for severe headache). […] A trial of tizanidine was started and the dose was titrated up to 8 mg at bedtime.
Pharmacologic Treatment and Response: While on the psychiatry unit, they were treated with sertraline for PTSD and nortriptyline for headaches and depression. […] They were started on tizanidine 4 mg at bedtime.
After approximately one year, subject agreed to a trial of tizanidine as an addition to sertraline. […] They agreed to increase the dose to 4 mg at bedtime and follow-up in four weeks. […] An atypical antipsychotic medication, aripiprazole, was added to their medications.
Treatment with tizanidine 4 mg at bedtime was added to the existing sertraline.

PTSD [2] = assay: Example 2 case summaries 7-9: switching from once to twice-daily dosing of tizanidine; details: for improvement on medications: approximately one year, doses close to the maximum recommended dose
Method: They were continued on aripiprazole, quetiapine, sertraline, and trazodone. Treatment with tizanidine was started for the nightmares and poor sleep.
They were switched from tizanidine 8 mg at bedtime to tizanidine 6 mg in the morning and 8 mg at bedtime. […] They continued on the sertraline, divalproex, and trazodone for initial insomnia. The tizanidine was switched to 4 mg in the morning and 4 mg at bedtime.
Subject was started on tizanidine up to 8 mg at bedtime for nightmares. They also were issued a device to assist with memory problems. A rating scale for common cognitive problems was administered by speech pathology prior to issuing them a personal digital assistant as a memory assist device.
They continued to take sertraline and tizanidine. At a psychology evaluation session, subject completed two self-report instruments of PTSD and depressive symptoms to establish a baseline indication of symptom severity. […] Subject was then switched from tizanidine 8 mg at bedtime to 4 mg twice daily.
After approximately one year of being followed in the psychiatry clinic, they became more willing to try medication and agreed to a trial of tizanidine.

PTSD [3] = details: Case 10; for ADHD symptoms: earlier medication trials during military service
Text: Given the prior history of ADHD, methylphenidate was cautiously added to the venlafaxine. […] They were referred to a specialty inpatient program for PTSD. During the inpatient program, the antidepressant was switched from venlafaxine to duloxetine.

[4] = Case 1, sertraline 100 mg per day with nortriptyline 25 mg at bedtime, after four weeks
[5] = Case 4, sertraline with nortriptyline, five days after hospital discharge
[6] = Case 8, sertraline 150 mg per day, two months later

CN[C@H]1CC[C@@H](c2ccc(Cl)c(Cl)c2)c2ccccc21 [sertraline]
anxiety, depression, and psychosis (PTSD [1]; [4]): only a modest decrease
intensity and frequency of nightmares (PTSD [1]; [4]): unchanged
anxiety, nightmares, and psychosis (PTSD [1]; Case 2, sertraline 200 mg daily, bupropion 150 mg twice daily and prazosin 5 mg at bedtime, one year): only a mild impact
signs or symptoms (PTSD [1]): None of these medications significantly reduced their signs or symptoms
hallucinations and paranoia (PTSD [1]; [5]): improvements regarding hallucinations and paranoia
sleep problems and nightmares (PTSD [1]; [5]): persistent sleep problems and nightmares
response to medication changes (PTSD [1]; Case 5, sertraline increased to 200 mg per day with sodium divalproex and aripiprazole added, twelve months): only a modest response
treatment results (PTSD [1]; Case 5, sertraline since release from military duty): poor results
PTSD signs and symptoms (PTSD [1]; Case 6, sertraline up to 200 mg per day, approximately one year): only modest improvement
improvement on medications (PTSD [2]; Case 7): only modest improvement
anxiety symptoms (PTSD [2]; [6]): responded well
irritability (PTSD [2]; [6]): not improved

CC1(C)O[C@@H]2[C@@H](CO[C@@]3(COS(N)(=O)=O)OC(C)(C)O[C@@H]23)O1 [topiramate]
frequency of combined visual-olfactory hallucinations (PTSD [2]; Case 7, recent addition of topiramate): did not reduce the frequency

OCCOCCN1CCN(C(c2ccccc2)c2ccc(Cl)cc2)CC1 (stereo not shown) [hydroxyzine]
improvement on medications (PTSD [2]; Case 7): only modest improvement

O=c1n(CCCN2CCN(c3cccc(Cl)c3)CC2)nc2ccccn12 [trazodone]
improvement on medications (PTSD [2]; Case 7): only modest improvement

CC(NC(C)(C)C)C(=O)c1cccc(Cl)c1 (stereo not shown) [bupropion]
ADHD symptoms (PTSD [3]): neither of which were effective

COC(=O)C(c1ccccc1)C1CCCCN1 (stereo not shown) [methylphenidate]
ADHD symptoms (PTSD [3]): neither of which were effective
mood and anxiety symptoms (PTSD [3]; methylphenidate added to venlafaxine): marked improvement
mood and anxiety symptoms (PTSD [3]; methylphenidate as monotherapy, several weeks): improved mood and anxiety symptoms
mood, anxiety, and cognitive symptoms (PTSD [3]; short-acting methylphenidate 10 mg three times daily): additional improvements

Cc1ccc(-c2nc3ccc(C)cn3c2CC(=O)N(C)C)cc1 [zolpidem]
nightmares (PTSD [2]; Case 8, initial treatment with zolpidem): did not improve the nightmares

COc1cc2nc(N3CCN(C(=O)c4ccco4)CC3)nc(N)c2cc1OC [prazosin]
nightmares (PTSD [1]; Case 2, prazosin 5 mg at bedtime added, sertraline increased to 200 mg daily): reduced but did not eliminate nightmares

OCCOCCN1CCN(C2=Nc3ccccc3Sc3ccccc32)CC1 [quetiapine]
hallucinations (PTSD [1]; Case 2, trial of quetiapine): did not affect the hallucinations
signs or symptoms (PTSD [1]): None of these medications significantly reduced their signs or symptoms
improvement on medications (PTSD [2]; Case 7): only modest improvement

COc1ccc(C(CN(C)C)C2(O)CCCCC2)cc1 (stereo not shown) [venlafaxine]
mood and anxiety symptoms (PTSD [3]; venlafaxine sustained-release 225 mg per day with zolpidem 10 mg at bedtime): only modestly improved
condition (PTSD [1]; Case 2, sertraline switched to venlafaxine up to 300 mg daily, six months): did not significantly change their condition
adverse effect (PTSD [2]; Case 8, Venlafaxine up to 150 mg daily): developed akathisia

O=C1CCc2ccc(OCCCCN3CCN(c4cccc(Cl)c4Cl)CC3)cc2N1 [aripiprazole]
improvement on medications (PTSD [2]; Case 7): only modest improvement

CN(C)CCC=C1c2ccccc2CCc2ccccc21 [amitriptyline]
signs or symptoms (PTSD [1]): None of these medications significantly reduced their signs or symptoms

CCCC(CCC)C(=O)O [divalproex sodium]
signs or symptoms (PTSD [1]): None of these medications significantly reduced their signs or symptoms
improvement on medications (PTSD [2]; Case 7): only modest improvement

CNCC[C@H](Oc1cccc2ccccc12)c1cccs1 [duloxetine]
helpfulness as judged by subject (PTSD [3]; antidepressant switched from venlafaxine to duloxetine): did not believe the duloxetine was helpful

COc1cccc(C2(O)CCCCC2CN(C)C)c1 (stereo not shown) [tramadol]
signs or symptoms (PTSD [1]): None of these medications significantly reduced their signs or symptoms
